Test results taken from US9688667B2, “Tazarotene with low dimer impurity for treating acne or psoriasis” (SUN PHARMACEUTICAL INDUSTRIES LIMITED, priority 2013, dated 2017).

Columns and labels:
[1] = tested on: ear of Sprague Dawley Rats; assay: Toxicity study: topical application of tazarotene spiked with dimer impurity on rat ears, ear thickness measurement; assay type: in vivo
Protocol: Inventor performed the toxicity study of tazarotene spiked with known dimer impurity by applying the fixed concentration a solution of tazarotene (0.1% w/v tazarotene) with variable concentrations of impurity (0-1500 ppm) on Sprague Dawley Rats as given in Table 1.
Each sample (100 μl) was applied topically once daily on the left and right ear of the animals (Sprague Dawley Rats) of the respective groups from day 0 to day 9. Animals were checked for recovery from day 10 to day 14. Ear thickness measurement was repeated on day 3, 7, 10, 12 and 14.

[2] = tazarotene gel, psoriasis, cited from earlier work

CC1(C)CCSc2ccc(C#CC#Cc3ccc4c(c3)C(C)(C)CCS4)cc21 [dimer impurity, 4,4-dimethyl-6-[4-(4,4-dimethylthiochroman-6-yl)-buta-1,3-diynyl]-thiochroman]
effect of level of dimer impurity on ear thickness and inflammation ([1]; dimer impurity 0-1500 ppm in tazarotene samples, topical application): dose dependent and significant increase
toxicity of the dimer impurity ([1]; found during the animal studies): highly toxic

CCOC(=O)c1ccc(C#Cc2ccc3c(c2)C(C)(C)CCS3)nc1 [tazarotene, ethyl 6-[(4,4-dimethylthiochroman-6-yl)ethynyl]nicotinate]
cessation of treatment due to adverse events ([2]; of patient population): about 5%
most common adverse effect [2]: mild to moderate burning, pruritus, stinging and erythema
